Values of other authors in EP0114993B1, “Renin inhibitory tripeptides” (Merck & Co., Inc., priority 1982, dated 1990).

System: hog renin
Conditions: after the injection of hog renin into nephrectomized rats; Gross et al., Science 175:656, 1971

pepstatin
blood pressure in vivo: reduce blood pressure
